In series [1] the test system is LN-229-GFP flank tumors. Put plainly: Histologic probe labeling of LN-229-GFP flank tumor tissue sections. Format: binding, human. Particulars: probe 1 μM, 1 hour, room temperature. Here is the method: Tumors were embedded in Tissue Freezing Medium (Electron Microscopy Sciences, Hatfield, Pa.) in a dry ice ethanol slurry and cryosectioned at 7-μm intervals.
For probe labeling, tissue sections were blocked with 2% goat serum in phosphate-buffered saline for 20 minutes at room temperature, then incubated with SBK2-Texas Red or scrambled Texas Red probes diluted to 1 μMin block buffer for 1 hour at room temperature in dark conditions. The sections were rinsed with phosphate-buffered saline, coverslipped with Citifluor Antifadent Mounting Medium (Electron Microscopy Sciences), and imaged immediately at ×20 magnification on a Leica DMI 6000 B inverted microscope (Leica Microsystems GmbH, Wetzlar, Germany) using a Retiga EXi camera (QImaging, Surrey, BC) and Metamorph software (MolecularDevices, Downington, Pa.). Images were acquired across the entire tissue using bright-field and fluorescence optics for fluorescein (GFP) and Texas Red (probe). The resultant images were tiled and flattened to form a single composite image using Metamorph software. A human specific Vimentin antibody (clone SP20; Thermo Fisher Scientific, Fremont, Calif.) was used to detect the implanted LN-229 tumor cells and imaged as above.

Series [2] deals with LN-229 flank tumors. Particulars: 0.1 mmol/kg i.v.
Excerpt: Cells were infected with lentivirus encoding green fluorescent protein (GFP), diluted in BD Matrigel Matrix (BD Biosciences, Franklin Lakes, N.J.), and injected into both flanks of female nude athymic mice (NCr-nu/+, NCr-nu/nu, 20-25 g each). Approximately 1.4×10^6 cells were implanted per flank. To correlate tumor position with GFP fluorescence, mice were imaged using the Maestro FLEX In Vivo Imaging System as previously described. Tumor area was approximately 0.5 cm^2, as measured from GFP fluorescence images acquired with the Maestro just before MRI.
The MRI study was performed using a Bruker Biospec 7-T MRI scanner (Bruker Corp, Billerica, Mass.) with a 72-mm diameter cylindrical radio frequency coil. Mice bearing LN-229 flank tumors were imaged at 2 to 5 weeks after tumor implant. […]
Image analysis was performed by using Bruker ParaVision 4.0 imaging software. Regions of interest were drawn over the whole tumor in the 2D imaging plane and average signal intensity was measured. Contrast-to-noise ratios (CNRs) in the tumor were calculated at each time point and averaged from different mice (n=3) using the following equation: CNR=(St−Sm)/(δn), where St and Sm denote the signal in tumor and adjacent thigh muscle and δn is the SD of noise estimated from the background air. The P values were calculated using a two-tailed Student's t test, assuming statistical significance at P<0.05. […]
Series [3] concerns prostate tumors. The experiment in a line: Labeling of prostate tumors with PTPμ probe (FIG. 3).
The test system of series [4] is CNS-1-GFP intracranial tumors. The conditions noted are these: for Cy5 fluorescence intensity of main tumors and dispersed cell populations: CNS-1 tumors, i.v. probe, 90 min clearance, normalized to background and tumor volume; for labeling of tumor (Cy5 signal) in words: intracranial glioma tumors, i.v. administration (FIG. 4).
Description: (§1) Imaging experiments were performed at 10-11 days for CNS-1 and 4-8 weeks for LN-229, to allow for optimal tumor growth and cell dispersal in these two cell lines. […] Following a 90-min interval for clearance of unbound probe, the animals were sacrificed and the brains removed for whole-brain imaging using the MAESTRO FLEX In-Vivo Imaging System (Cambridge Research & Instrumentation, Inc. (CRi), Woburn, Mass.) Immediately after imaging, the brains were embedded in Tissue-Tek OCT compound (Sakura Finetek U.S.A., Inc. Torrance, Calif.), frozen in a dry ice/ethanol slurry and cryo-imaged.
Frozen brains were alternately sectioned and imaged using the previously described Case Cryo-Imaging System at a section thickness of 15 μm and a resolution of 11×11×15 μm. Brightfield and fluorescence images were acquired for each of the brains using a low light digital camera (Retiga Exi, QImaging Inc., Canada), an epi-illumination fluorescent light source (Lumen200 PRO, Prior Scientific' Rockland, Mass.) and fluorescence filters for GFP (Exciter: HQ470/40x, Dichroic: Q495LP, Emitter: HQ500LP) or Cy5 (Exciter: FF01-628/40-25, Dichroic: FF660-Di01−25×36, Emitter: FF01-692/40-25; Semrock, Rochester, N.Y.). Single GFP expressing cells were readily detected with this system. […] Eight brains implanted with CNS-1-GFP cells and six brains with LN-229-GFP cells were analyzed.
Briefly, the main tumor mass was segmented using a fast 3-D region growth algorithm with intensity and gradient-based inclusion/exclusion criteria. Individual slice images were manually edited if necessary. Dispersed cells and clusters were detected by thresholding a Gaussian high pass filter image, discounting the masked main tumor mass. […] Light scattering in tissue might appear as a false positive signal in Cy5 volumes, However, we processed Cy5 volumes with a next-image processing algorithm, and used attenuation and scattering parameters for brain tissue that were previously described. Similar parameters were applied for both SBK2-Cy5 and scrambled-Cy5 volumes. To find co-labeled cells/clusters we applied a logical AND operator between the dispersed cell and Cy5 volumes. The lower limit for the blood vessel detection algorithm was ˜30 μm diameter. 3-D volumes of tumor, dispersed cells, Cy5 labeled cells, and vasculature were rendered using Amira software (Visage Imaging Inc., San Diego, Calif.), with modifications developed expressly for cryo-image data. Pseudo-colors were chosen to give the best contrast between the different data volumes.
For series [5], the system named is LN-229-GFP intracranial tumors. Put plainly: In vivo labeling of LN-229-GFP intracranial tumors with Cy5 probes, 3-D cryo-imaging. Also on record: species or system mouse. The conditions noted are these: for Cy5 fluorescence of main tumors and dispersed cell populations: LN-229 tumors, i.v. probe, 90 min clearance. The source says: Individual slice images were manually edited if necessary.
Total fluorescence signal was then normalized for tumor volume.

Series [6] can be described thus: Mouse health after multiple doses of Cy5 probes. Format: in vivo. Particulars: delivery of multiple doses.
Description: as §1

Where two headings read alike, the source gives them in different places. Where no end group is shown, it is not given here.

“scrambled Texas Red: scrambled peptide probe labeled with Texas Red (GFTQPETGTDNDLWSVDNEK; not fully specified (N-terminus); also: labeled with Texas Red, site not given here) [reference compound]”: the “labeling of flank tumor sections” value in series [1] is on record as “did not label the tumor”.

For `CC(O)CN1CCN(CC(=O)[O-])CCN(CC(=O)[O-])CCN(CC(=O)[O-])CC1.[Gd+3]` (centres unmarked) [ProHance, Gadoteridol, reference compound], the “pattern of tumor enhancement on T1-weighted images / heat maps” value in series [2] is given as “enhanced contrast of the tumor edge compared with the tumor center”.

For “scrambled Tris-(Gd-DOTA)3: scrambled SBK2 peptide (SEQ ID NO: 10) linked to Gd-DOTA; nontargeted control agent (CGFTQPETGTDNDLWSVDNEK; numbers in words are those of the source; also: Tris-(Gd-DOTA)3 conjugate, attachment site not given here) [reference compound]”, in series [2], the “pattern of tumor enhancement on T1-weighted images / heat maps” value was “enhanced contrast of the tumor edge compared with the tumor center”.

Regarding “SBK2-Texas Red: SBK2 peptide probe labeled with Texas Red (EGDDFNWEQVNTLTKPTSD; not fully specified (N-terminus); also: labeled with Texas Red, site not given here)”, the “labeling of flank tumor sections” value in series [1] is given as “labeled the entire tumor with greatest intensity in the tumor center”. Moreover, in series [3], the “recognition of prostate tumors” value is given as “recognized”.

Regarding “SBK2-Cy5: SBK2 peptide (SEQ ID NO: 5) with additional N-terminal glycine conjugated to Cy5 NHS ester dye (Cy5-GEGDDFNWEQVNTLTKPTSD)”, in series [4], the “Cy5 fluorescence intensity of main tumors and dispersed cell populations” value was 73.5+/−16.2; the “labeling of tumor (Cy5 signal) in words” value is given as “brightly labeled”. Further, in series [4] (mouse, in vivo, iv), the blood-brain barrier crossing result was “crosses the blood-brain barrier”. In series [5] (LN-229-GFP intracranial tumors), the “dispersed cell population labeled” value was “greater than 99%” and the “labeling of main GFP-positive tumor in words” value was “bright Cy5 fluorescence signal”. Besides, in series [5], the “Cy5 fluorescence of main tumors and dispersed cell populations” value is recorded as 114.7+/−25.9. Further, the “effects on mouse health” value in series [6] is on record as “did not result in deleterious effects”.

Consider “scrambled-Cy5: scrambled sequence of the SBK2 peptide (SEQ ID NO: 10) conjugated to Cy5 dye; control probe (GFTQPETGTDNDLWSVDNEK; also: Cy5 dye conjugate, attachment site not given here) [reference compound]”, for which, in series [4], the “Cy5 fluorescence intensity of main tumors and dispersed cell populations” value was 7.2+/−2.3; the “labeling of tumor (Cy5 signal) in words” value was “did not label tumors”. Further, in series [4] (listed as scrambled probe), the “labeling of tumor (Cy5 signal) in words” value was “no significant signal above background”. Besides, in series [5], the “Cy5 fluorescence of main tumors and dispersed cell populations” value is 5.8. Further, the “effects on mouse health” value in series [6] was “did not result in deleterious effects”.

For the origin of these results see patent publication US9415122B2, “Methods and compositions for the detection of cancer cells” (priority 2008, dated 2016).
